Test results published in ChEMBL document CHEMBL4837259, “Comprehensive Approach of 19F Nuclear Magnetic Resonance, Enzymatic, and In Silico Methods for Site-Specific Hit Selection and Validation of Fragment Molecules that Inhibit Methionine γ-Lyase Activity” (J Med Chem, 2021).
Activity calls are given as the source filed them. The calls are words filed in the database; no cut-off is given here.

How the values were obtained:
[1] = tested on: Fusobacterium nucleatum; test: Inhibition of Fusobacterium nucleatum ATCC 25586 recombinant MGL K238A mutant expressed in Escherichia coli BL21 (DE3) assessed as decrease in signal intensity by measuring recovery ratio by 19F NMR based competition assay relative to wild type; design: concentration or dose not given beside the values
[2] = tested on: Fusobacterium nucleatum; test: Inhibition of Fusobacterium nucleatum ATCC 25586 recombinant MGL R58A mutant expressed in Escherichia coli BL21 (DE3) assessed as decrease in signal intensity by measuring recovery ratio by 19F NMR based competition assay relative to wild type; design: scale not given: the % may be the effect or the level left
[3] = target: T1, L-methionine gamma-lyase (Fusobacterium nucleatum subsp. nucleatum) (UniProt Q8RDT4); test: Inhibition of Fusobacterium nucleatum ATCC 25586 recombinant wild type MGL expressed in Escherichia coli BL21 (DE3) assessed as formation of 2-ketobutyrate using L-methionine as substrate by enzymatic assay; design: concentration or dose not given beside the values; conditions: concentration not given here
T1 sequence (whole entry): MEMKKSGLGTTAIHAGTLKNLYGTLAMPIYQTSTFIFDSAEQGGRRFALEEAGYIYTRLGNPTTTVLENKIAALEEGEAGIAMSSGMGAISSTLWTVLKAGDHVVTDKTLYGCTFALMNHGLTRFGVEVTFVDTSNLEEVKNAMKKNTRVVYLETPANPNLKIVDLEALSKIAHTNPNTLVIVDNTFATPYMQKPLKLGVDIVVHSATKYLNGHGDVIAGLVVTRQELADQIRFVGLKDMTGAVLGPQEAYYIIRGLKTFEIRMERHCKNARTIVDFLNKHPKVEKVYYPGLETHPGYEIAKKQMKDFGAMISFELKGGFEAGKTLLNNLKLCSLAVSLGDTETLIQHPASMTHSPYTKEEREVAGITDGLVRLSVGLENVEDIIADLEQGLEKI

[4] = tested on: Fusobacterium nucleatum; test: Inhibition of Fusobacterium nucleatum ATCC 25586 recombinant MGL Y111F mutant expressed in Escherichia coli BL21 (DE3) assessed as decrease in signal intensity by measuring recovery ratio by 19F NMR based competition assay relative to wild type; design: concentration or dose not given beside the values
[5] = tested on: Fusobacterium nucleatum; test: Inhibition of Fusobacterium nucleatum ATCC 25586 recombinant MGL R373A mutant expressed in Escherichia coli BL21 (DE3) assessed as decrease in signal intensity by measuring recovery ratio by 19F NMR based competition assay relative to wild type; design: scale not given: the % may be the effect or the level left
[6] = tested on: Fusobacterium nucleatum; test: Inhibition of Fusobacterium nucleatum ATCC 25586 recombinant MGL C113S mutant expressed in Escherichia coli BL21 (DE3) assessed as decrease in signal intensity by measuring recovery ratio by 19F NMR based competition assay relative to wild type; design: scale not given: the % may be the effect or the level left
[7] = target: T1, L-methionine gamma-lyase (Fusobacterium nucleatum subsp. nucleatum); test: Inhibition of Fusobacterium nucleatum ATCC 25586 recombinant wild type MGL expressed in Escherichia coli BL21 (DE3) assessed as decrease in signal intensity by 19F NMR based competition assay relative to control; design: concentration or dose not given beside the values
[8] = tested on: Fusobacterium nucleatum; test: Inhibition of Fusobacterium nucleatum ATCC 25586 recombinant MGL Y56F mutant expressed in Escherichia coli BL21 (DE3) assessed as decrease in signal intensity by measuring recovery ratio by 19F NMR based competition assay relative to wild type; design: concentration or dose not given beside the values
[9] = tested on: Fusobacterium nucleatum; test: Inhibition of Fusobacterium nucleatum ATCC 25586 recombinant MGL R58K mutant expressed in Escherichia coli BL21 (DE3) assessed as decrease in signal intensity by measuring recovery ratio by 19F NMR based competition assay relative to wild type; design: scale not given: the % may be the effect or the level left
[10] = tested on: Fusobacterium nucleatum; test: Inhibition of Fusobacterium nucleatum ATCC 25586 recombinant MGL R373K mutant expressed in Escherichia coli BL21 (DE3) assessed as decrease in signal intensity by measuring recovery ratio by 19F NMR based competition assay relative to wild type; design: concentration or dose not given beside the values

Structure (SMILES)	Activity [1]	Activity [2]	inhibition [3]	Activity [4]	Activity [5]	Activity [6]	Activity [7]	Activity [8]	Activity [9]	Activity [10]
O=C(O)c1cn(-c2ccccc2F)cn1	inactive	80%	-5.3%	Active	50%	Active	26%	Active	80%	Active
O=C(O)c1ccnc(OC(F)F)c1	Active	80%	1.5%	Active	80%	50%	67%	80%	80%	50%
O=C(O)c1cnc(OCC(F)(F)F)cn1	50%	80%	4.4%	Active	80%	Active	49%	80%	80%	Active
O=C(O)c1cc(F)c(OCC2CC2)c(F)c1	Active	80%	9.5%	80%	80%	Active	77%	80%	50%	Active
CC(C)(C)OC(=O)N1CCC(CN)(c2cccc(F)c2)CC1	Active	Active	16.1%	Active	inactive	Active	65%	50%	80%	Active
Fc1cccc(-c2nnc3ccc(Br)cn23)c1			7.2%				89%			
CC(C)(Cc1ccc(C(F)(F)F)cc1)C(=O)O	80%	80%	8.3%	80%	50%	Active	55%	80%	50%	inactive
O=C(O)c1ccc(OCC(F)(F)F)cn1	50%	80%	15%	80%	80%	80%	40%	80%	80%	Active
O=C(O)c1cc(C(F)(F)F)nn1-c1ccccc1	Active	80%	23.9%	80%	50%	50%	49%	80%	80%	Active
CCOC(=O)c1nc(-c2ccccc2F)no1	Active	50%	13.3%	50%	80%	Active	82%	80%	50%	Active
CC(C)(C)OC(=O)N1CCC(C(=O)O)(c2ccc(C(F)(F)F)cc2)CC1	50%	Active	12.9%	Active	Active	50%	96%	80%	50%	Active
CC(C)(C)OC(=O)N1CCC(CN)(Cc2ccccc2C(F)(F)F)CC1	Active	50%	56.5%	Active	Active	80%	85%	80%	80%	Active
Cc1cccc2c(C(C(=O)O)C(F)(F)F)c[nH]c12 (configuration not stated)	50%	80%	-5.3%	50%	50%	inactive	44%	80%	50%	Active
O=C(O)c1cn(-c2ccc(C(F)(F)F)cc2)cn1	Active	50%	45.3%	50%	80%	Active	87%	80%	80%	Active
CC(C)(C)OC(=O)N1CCC(CN)(Cc2ccc(F)cc2)CC1	inactive	Active	27.7%	inactive	Active	50%	70%	80%	50%	Active
O=C(O)c1cn(-c2ccc(F)cc2)cn1	Active	80%	6.2%	Active	80%	50%	58%	Active	80%	Active
CC(C)(C)OC(=O)N1CCC(CN)(Cc2ccccc2F)CC1	inactive	Active	30.1%	inactive	inactive	80%	63%	80%	50%	Active
O=C(O)c1cc(C(F)(F)F)nn1Cc1ccccc1	Active	80%	14.5%	50%	50%	inactive	41%	50%	80%	50%
O=C(O)c1ccnc(OC(F)(F)F)c1	50%	80%	22.3%	50%	80%	Active	76%	80%	80%	50%
CCOC(=O)c1nc(-c2ccc(F)cc2)no1	Active	80%	33.1%	50%	80%	Active	84%	80%	50%	50%
O=C(O)c1cncc(OCC(F)(F)F)c1	Active	80%	9.1%	50%	50%	inactive	35%	80%	80%	Active
O=C(O)c1ccc(OC(F)F)nc1	Active	50%	12.6%	Active	80%	Active	78%	80%	50%	Active
CC(C)(C)OC(=O)N[C@H]1CC[C@H](N2Cc3ccc(F)cc3C2=O)CC1	Active	Active	-1.2%	Active	Active	50%	70%	50%	50%	Active
Cc1ccc2[nH]cc(C(C(=O)O)C(F)(F)F)c2c1 (configuration not stated)	Active	80%	9.3%	80%	50%	inactive	48%	80%	80%	Active
CC(C)(C)OC(=O)N1CCC(CN)(c2ccc(F)cc2)CC1	50%	50%	12.9%	50%	Active	Active	20%	80%	50%	Active
